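These data come from cells grown in 96-well plates and exposed to compound for 48 hours at five concentrations. TGI marks complete inhibition of growth.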
Legend:
Assay in all cases: DTP human tumour cell line panel, 48 h
[1] = test system: SK-MEL-5 melanoma
[2] = test system: OVCAR-4 ovarian
[3] = test system: LXFL 529 NSCLC
[4] = test system: MALME-3M melanoma
[5] = test system: A549 NSCLC
[6] = test system: COLO 205 colon
[7] = test system: NCI-H460 lung
[8] = test system: HCC-2998 colon
[9] = test system: HOP-18 NSCLC
[10] = test system: TK-10 renal
[11] = test system: M19-MEL melanoma
[12] = test system: KM20L2 colon
[13] = test system: 786-0 renal
[14] = test system: SF-268 CNS
[15] = test system: HCT-116 colon
[16] = test system: K-562 leukemia
[17] = test system: IGROV1 ovarian
[18] = test system: NCI-H226 lung
[19] = test system: CAKI-1 renal
[20] = test system: SK-OV-3 ovarian
[21] = test system: U251 CNS
[22] = test system: UO-31 renal
[23] = test system: LOX IMVI melanoma
[24] = test system: RPMI-8226 leukemia
[25] = test system: HT29 colon
[26] = test system: OVCAR-5 ovarian
[27] = test system: NCI-H522 lung
[28] = test system: SNB-75 CNS
[29] = test system: MOLT-4 leukemia
[30] = test system: HCT-15 colon
[31] = test system: XF 498 CNS
[32] = test system: M14 melanoma
[33] = test system: SF-295 CNS
[34] = test system: SR leukemia
[35] = test system: HL-60(TB) leukemia
[36] = test system: ACHN renal
[37] = test system: HOP-62 NSCLC
[38] = test system: UACC-62 melanoma
[39] = test system: SW-620 colon
[40] = test system: CCRF-CEM leukemia
[41] = test system: DLD-1 colon
[42] = test system: DMS 114 small cell lung
[43] = test system: A498 renal
[44] = test system: KM12 colon
[45] = test system: EKVX NSCLC
[46] = test system: RXF-631 renal
[47] = test system: SNB-19 CNS
[48] = test system: SN12C renal
[49] = test system: NCI-H23 lung
[50] = test system: SF-539 CNS
[51] = test system: OVCAR-3 ovarian
[52] = test system: RXF 393 renal
[53] = test system: OVCAR-8 ovarian
[54] = test system: SK-MEL-28 melanoma
[55] = test system: UACC-257 melanoma
[56] = test system: HOP-92 NSCLC
[57] = test system: SK-MEL-2 melanoma

With N#CC(/C(CCCC(=O)Nc1cccc([N+](=O)[O-])c1)=N/NC(=O)c1cc2ccccc2cc1O)c1ccccc1 (stereo not drawn) the TGI [1] was 40.8 µM, the TGI [2] was > 100 µM and the TGI [3] was > 100 µM. The TGI [4] was > 100 µM, the TGI [5] was > 100 µM and the TGI [6] was 46.9 µM. The TGI [7] was > 100 µM, the TGI [8] was > 100 µM and the TGI [9] was > 100 µM. The TGI [10] was > 100 µM, the TGI [11] was 34.9 µM and the TGI [12] was > 100 µM. For the same compound, the TGI [13] was 96.3 µM, the TGI [14] was > 100 µM and the TGI [15] was > 100 µM. For the same compound, the TGI [16] was > 100 µM, the TGI [17] was > 100 µM and the TGI [18] was > 100 µM. The TGI [19] was > 100 µM, the TGI [20] was > 100 µM and the TGI [21] was > 100 µM. For the same compound, the TGI [22] was > 100 µM, the TGI [23] was 49.4 µM and the TGI [24] was > 100 µM. The TGI [25] was > 100 µM, the TGI [26] was > 100 µM and the TGI [27] was 56.9 µM. The TGI [28] was > 100 µM, the TGI [29] was > 100 µM and the TGI [30] was > 100 µM. For the same compound, the TGI [31] was 63 µM, the TGI [32] was 39.6 µM and the TGI [33] was > 100 µM. For the same compound, the TGI [34] was > 100 µM, the TGI [35] was 48.7 µM and the TGI [36] was > 100 µM. The TGI [37] was > 100 µM, the TGI [38] was 45 µM and the TGI [39] was > 100 µM. The TGI [40] was 43.3 µM, the TGI [41] was > 100 µM and the TGI [42] was 45.5 µM. For the same compound, the TGI [43] was 92.8 µM, the TGI [44] was > 100 µM and the TGI [45] was > 100 µM. The TGI [46] was > 100 µM, the TGI [47] was > 100 µM and the TGI [48] was > 100 µM. The TGI [49] was 61.5 µM, the TGI [50] was 72.5 µM and the TGI [51] was > 100 µM. For the same compound, the TGI [52] was 72.3 µM, the TGI [53] was > 100 µM and the TGI [54] was > 100 µM. For the same compound, the TGI [55] was 98.5 µM and the TGI [56] was 95.9 µM.
In the case of [C-]#[N+][C@@H]1C2[C@H](CC[C@@]1(C)O)C(=C)CC[C@@H]2[C@@]1(C)CC[C@H](Cl)C(C)(C)O1 (stereo partly drawn), the TGI [1] is reported as 15.7 µM, the TGI [2] is reported as 33.7 µM and the TGI [3] is reported as > 100 µM. For the same compound, the TGI [4] was 48.1 µM, the TGI [5] was 77.6 µM and the TGI [6] was 12.8 µM. It also gave a TGI [7] of 52.6 µM, a TGI [8] of 36.7 µM and a TGI [9] of 21.9 µM. The TGI [10] was 84.2 µM, the TGI [11] was 21.9 µM and the TGI [12] was > 100 µM. The TGI [13] was 23.8 µM, the TGI [14] was > 100 µM and the TGI [57] was 27.8 µM. For the same compound, the TGI [15] was 12.8 µM, the TGI [16] was 13.5 µM and the TGI [17] was 41.7 µM. For the same compound, the TGI [18] was 20.8 µM, the TGI [19] was 27.7 µM and the TGI [20] was 82.6 µM. For the same compound, the TGI [21] was 36.3 µM, the TGI [22] was 7.17 µM and the TGI [23] was 16.8 µM. It also gave a TGI [24] of 20.9 µM, a TGI [25] of 29.8 µM and a TGI [27] of 22.4 µM. The TGI [28] was > 100 µM, the TGI [30] was 18 µM and the TGI [31] was 26.4 µM. It also gave a TGI [32] of 12.6 µM, a TGI [33] of 28.3 µM and a TGI [35] of 5.66 µM. It also gave a TGI [36] of 33.2 µM, a TGI [38] of 20.1 µM and a TGI [39] of 31.1 µM. For the same compound, the TGI [40] was 21.8 µM, the TGI [41] was 50.8 µM and the TGI [42] was 9.08 µM. It also gave a TGI [43] of 41.7 µM, a TGI [44] of 25 µM and a TGI [45] of 60.2 µM. For the same compound, the TGI [46] was > 100 µM, the TGI [47] was > 100 µM and the TGI [48] was 26.3 µM. It also gave a TGI [49] of 53.4 µM, a TGI [50] of 39.4 µM and a TGI [51] of 9.97 µM. The TGI [52] was 35.4 µM, the TGI [53] was 21 µM and the TGI [54] was > 100 µM. The TGI [55] was 45.4 µM.
